Patent US20250288583A1, “Treatment of Mucus Hypersecretion” (priority 2024, published 2025)
Entries after “also recorded” stand apart in the source; their conditions may differ.

What was measured:
Stability of the solid = assay type: physicochemical; details: room temperature and physiological pH
oral cavity = details: Johnson et al., 2018; cited from earlier work
TRPV1 = molecular target: T1, TRPV1 (Homo sapiens, UniProt Q8NER1); assay: TRPV1 specificity assay in transfected cells; assay type: cell-based; details: FIG. 5; capsaicin positive control
T1 construct: expressed in transfected cells
T1 sequence (Q8NER1 whole entry, species assumed): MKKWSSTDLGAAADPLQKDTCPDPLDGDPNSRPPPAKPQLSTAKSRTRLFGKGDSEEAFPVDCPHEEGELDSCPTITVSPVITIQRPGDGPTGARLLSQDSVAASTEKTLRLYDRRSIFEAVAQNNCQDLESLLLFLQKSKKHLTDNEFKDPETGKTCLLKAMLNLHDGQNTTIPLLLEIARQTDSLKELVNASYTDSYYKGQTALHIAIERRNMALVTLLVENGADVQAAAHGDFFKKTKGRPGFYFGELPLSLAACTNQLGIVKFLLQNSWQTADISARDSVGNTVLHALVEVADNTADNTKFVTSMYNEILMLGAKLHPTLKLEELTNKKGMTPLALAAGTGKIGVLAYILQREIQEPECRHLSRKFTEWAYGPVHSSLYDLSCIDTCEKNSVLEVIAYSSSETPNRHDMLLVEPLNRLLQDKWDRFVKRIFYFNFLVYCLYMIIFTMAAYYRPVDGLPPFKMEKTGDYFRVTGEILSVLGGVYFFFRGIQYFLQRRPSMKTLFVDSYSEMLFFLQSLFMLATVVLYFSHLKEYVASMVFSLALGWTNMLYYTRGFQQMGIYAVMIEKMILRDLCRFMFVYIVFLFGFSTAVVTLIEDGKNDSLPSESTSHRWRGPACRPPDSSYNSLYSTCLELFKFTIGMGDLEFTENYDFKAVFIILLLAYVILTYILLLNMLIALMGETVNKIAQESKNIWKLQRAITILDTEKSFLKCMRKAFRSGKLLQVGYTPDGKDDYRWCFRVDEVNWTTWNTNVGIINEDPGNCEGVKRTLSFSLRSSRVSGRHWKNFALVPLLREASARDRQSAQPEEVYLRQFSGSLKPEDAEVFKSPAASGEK

Structure (SMILES) | Stability (Stability of the solid) | Sensory qualities in the oral cavity compared with WS-5 (oral cavity) | Response of cells transfected with TRPV1 (TRPV1)
CC(C)OC(=O)CNC(=O)[C@@H]1C[C@H](C)CC[C@H]1C(C)C [GlyOiPr, [((1R,2S,5R)-2-isopropyl-5-methyl-cyclohexanecarbonyl)-amino]-acetic acid isopropyl ester] | stable at room temperature and physiological pH | more refreshing and less bitter than WS-5 | do not respond; also recorded: activates TRPM8 but not TRPV1 or TRPA1
CC(C)OC(=O)[C@@H](C)NC(=O)[C@@H]1C[C@H](C)CC[C@H]1C(C)C [D-Ala-OiPr, (R)-2-[((1R,2S,5R)-2-isopropyl-5-methyl-cyclohexanecarbonyl)amino]-propionic acid i-propyl ester] | – | – | inactive
